Laboratory results published in patent publication US20250163038A1, “CBL-B MODULATORS AND USES THEREOF” (Nimbus Clio, Inc., priority 2021, published 2025).
Like-named read-outs stand apart in the source and are kept apart here.

Legend:
[1] = target: Recombinant human Cbl-b (aa 36-427) (Homo sapiens, UniProt Q13191); assay: Cbl-b Biochemical Assay (TR-FRET)
[2] = system: Jurkat (clone E6-1) cells with NFAT luciferase reporter; assay: Jurkat reporter assay (NFAT Luciferase); format: cell-based; details: Homo sapiens; Jurkat NFAT luciferase reporter cells, anti-CD3 stimulation, 6 hr; read-out: Jurkat NFAT EC50
[3] = target: T1, Recombinant human c-Cbl (aa 47-435) (Homo sapiens, UniProt P22681); assay: c-Cbl Biochemical Assay (TR-FRET)
T1 sequence (P22681 47-435): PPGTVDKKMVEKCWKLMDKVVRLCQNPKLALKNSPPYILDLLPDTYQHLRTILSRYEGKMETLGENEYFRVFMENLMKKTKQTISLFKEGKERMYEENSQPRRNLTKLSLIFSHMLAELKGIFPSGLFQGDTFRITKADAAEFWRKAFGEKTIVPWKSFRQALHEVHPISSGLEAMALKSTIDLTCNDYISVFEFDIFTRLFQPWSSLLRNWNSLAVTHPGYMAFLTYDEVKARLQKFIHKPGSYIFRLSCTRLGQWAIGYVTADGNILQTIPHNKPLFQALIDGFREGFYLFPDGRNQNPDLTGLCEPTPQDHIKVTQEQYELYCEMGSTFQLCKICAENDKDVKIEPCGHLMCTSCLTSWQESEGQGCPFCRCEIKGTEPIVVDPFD

[4] = hc-Cbl Biochemical Assay (TR-FRET), read-out: TR-FRET hcCbl IC50

Chain of Recombinant human Cbl-b (aa 36-427) (Q13191 36-427): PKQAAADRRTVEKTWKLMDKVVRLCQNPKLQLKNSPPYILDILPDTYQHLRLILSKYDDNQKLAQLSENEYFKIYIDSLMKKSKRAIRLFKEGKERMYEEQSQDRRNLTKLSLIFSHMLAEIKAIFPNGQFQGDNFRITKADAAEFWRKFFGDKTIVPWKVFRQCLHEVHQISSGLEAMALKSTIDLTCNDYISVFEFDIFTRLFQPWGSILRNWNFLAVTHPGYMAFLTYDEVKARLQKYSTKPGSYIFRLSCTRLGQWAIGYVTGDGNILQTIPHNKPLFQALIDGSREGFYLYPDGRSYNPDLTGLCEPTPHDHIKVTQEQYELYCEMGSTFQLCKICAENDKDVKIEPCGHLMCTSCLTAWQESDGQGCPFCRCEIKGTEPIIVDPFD

SMILES | IC50 ([1]; read-out: TR-FRET hCbl-b IC50) | EC50 [2] | IC50 [3, 4] | IC50 [1] | IC50 [3]
Cn1cnnc1-c1cc(F)ccc1-c1cccc(-c2nc3cc(CN[C@@H]4CCC[C@@H]4O)cc(C(F)(F)F)c3[nH]2)c1 [BM-2, (1S,2R)-2-(((2-(4′-Fluoro-2′-(4-methyl-4H-1,2,4-triazol-3-yl)-[1,1′-biphenyl]-3-yl)-7-(trifluoromethyl)-1H-benzo[d]imidazol-5-yl)methyl)amino)cyclopentan-1-ol] | < 200 nM | 200 to 1000 nM | 1000 to 10000 nM | – | –
Cn1cnnc1-c1cc(F)ccc1-c1cc(-c2nc3cc(CO)cc(C(F)(F)F)c3[nH]2)nc(C2CC2)c1 [ADU-2, (2-{6-Cyclopropyl-4-[4-fluoro-2-(4-methyl-1,2,4-triazol-3-yl)phenyl]pyridin-2-yl}-7-(trifluoromethyl)-1H-1,3-benzodiazol-5-yl)methanol] | < 200 nM | 200 to 1000 nM | < 200 nM | – | –
Cn1cnnc1-c1cc(F)ccc1-c1cc(-c2nc3cc(CN[C@@H]4CCC[C@]4(C)O)cc(F)c3o2)nc(C2CC2)c1 [AFL-2, (1S,2R)-2-(((2-(6-Cyclopropyl-4-(4-fluoro-2-(4-methyl-4H-1,2,4-triazol-3-yl)phenyl)pyridin-2-yl)-7-fluorobenzo[d]oxazol-5-yl)methyl)amino)-1-methylcyclopentan-1-ol] | – | 1000 to 10000 nM | – | < 200 nM | 200 to 1000 nM
Cc1cc(CN[C@@H]2CCC[C@@H]2O)c(F)c2nc(-c3cccc(-c4ccc(F)cc4-c4nncn4C)c3)oc12 [IQ-8, (1S,2R)-2-(((4-Fluoro-2-(4′-fluoro-2′-(4-methyl-4H-1,2,4-triazol-3-yl)-[1,1′-biphenyl]-3-yl)-7-methylbenzo[d]oxazol-5-yl)methyl)amino)cyclopentan-1-ol] | < 200 nM | < 200 nM | < 200 nM | – | –
C[C@H]1CCCN(Cc2cc(C(F)(F)F)c3oc(-c4cccc(-c5ccc(F)cc5-c5nncn5C)c4)nc3c2)C1 [Example U-1, (S)-2-(4′-Fluoro-2′-(4-methyl-4H-1,2,4-triazol-3-yl)-[1,1′-biphenyl]-3-yl)-5-((3-methylpiperidin-1-yl)methyl)-7-(trifluoromethyl)benzo[d]oxazole] | < 200 nM | 200 to 1000 nM | 1000 to 10000 nM | – | –
Cn1cnnc1-c1cc(F)ccc1-c1cccc(-c2cn3ccc(CN[C@@H]4CCC[C@@H]4O)cc3n2)c1 [GO-2, (1S,2R)-2-(((2-(4′-Fluoro-2′-(4-methyl-4H-1,2,4-triazol-3-yl)-[1,1′-biphenyl]-3-yl)imidazo[1,2-a]pyridin-7-yl)methyl)amino)cyclopentan-1-ol] | < 200 nM | 200 to 1000 nM | < 200 nM | – | –
Cn1cnnc1-c1cc(F)ccc1-c1cc(-c2nc3cc(CNCC(C)(C)O)cc(F)c3o2)cc(C2CC2)c1 [JQ-1, 1-(((2-(5-Cyclopropyl-4′-fluoro-2′-(4-methyl-4H-1,2,4-triazol-3-yl)-[1,1′-biphenyl]-3-yl)-7-fluorobenzo[d]oxazol-5-yl)methyl)amino)-2-methylpropan-2-ol] | < 200 nM | < 200 nM | < 200 nM | – | –
Cn1cnnc1-c1cc(Cl)ccc1-c1cc(-c2nc3cc(CNCC4(O)CCC4)ccc3o2)nc(C2CC2)c1 [ADT-12, 1-({[(2-{4-[4-Chloro-2-(4-methyl-1,2,4-triazol-3-yl)phenyl]-6-cyclopropylpyridin-2-yl}-1,3-benzoxazol-5-yl)methyl]amino}methyl)cyclobutan-1-ol] | < 200 nM | < 200 nM | < 200 nM | – | –
Cn1cnnc1-c1cc(F)ccc1-c1cccc(-c2nc3cc(CN4C[C@@H]5C[C@H]4CO5)cc(C(F)(F)F)c3o2)c1 [IN-2, 5-(((1S,4S)-2-Oxa-5-azabicyclo[2.2.1]heptan-5-yl)methyl)-2-(4′-fluoro-2′-(4-methyl-4H-1,2,4-triazol-3-yl)-[1,1′-biphenyl]-3-yl)-7-(trifluoromethyl)benzo[d]oxazole] | 1000 to 10000 nM | 1000 to 10000 nM | 1000 to 10000 nM | – | –
Cc1cc(CN(C)[C@@H]2CCC[C@@H]2O)cc2nc(-c3cc(-c4ccc(F)cc4-c4nncn4C)cc(C4CC4)n3)oc12 [AFG-1, (1S,2R)-2-(((2-(6-Cyclopropyl-4-(4-fluoro-2-(4-methyl-4H-1,2,4-triazol-3-yl)phenyl)pyridin-2-yl)-7-methylbenzo[d]oxazol-5-yl)methyl)(methyl)amino)cyclopentan-1-ol] | – | < 200 nM | – | < 200 nM | < 200 nM
Cn1cnnc1[C@]1(c2cccc(-c3nc4cc(CNCC5CCC5)cc(C(F)(F)F)c4o3)c2)C[C@H](C)C1 [ADZ-1, (Cyclobutylmethyl)[(2-{3-[(1r,3s)-3-methyl-1-(4-methyl-1,2,4-triazol-3-yl)cyclobutyl]phenyl}-7-(trifluoromethyl)-1,3-benzoxazol-5-yl)methyl]amine] | < 200 nM | 200 to 1000 nM | < 200 nM | – | –

Second part, led by results:

IC50 ([1]; read-out: TR-FRET hCbl-b IC50) | EC50 [2] | IC50 [3, 4] | SMILES | IC50 [1] | IC50 [3]
< 200 nM | 200 to 1000 nM | 200 to 1000 nM | COCCNCc1cc(C)c2oc(-c3cccc(-c4ccc(F)cc4-c4nncn4C)c3)nc2c1 [GV-1, N-((2-(4′-Fluoro-2′-(4-methyl-4H-1,2,4-triazol-3-yl)-[1,1′-biphenyl]-3-yl)-7-methylbenzo[d]oxazol-5-yl)methyl)-2-methoxyethan-1-amine] | – | –
< 200 nM | 200 to 1000 nM | 1000 to 10000 nM | C[C@H]1CCCN(Cc2cc(C(F)(F)F)c3[nH]c(-c4cc(-c5ccc(F)cc5-c5nncn5C)cc(C5CC5)n4)nc3c2)C1 [AAZ-10, (S)-2-(6-Cyclopropyl-4-(4-fluoro-2-(4-methyl-4H-1,2,4-triazol-3-yl)phenyl)pyridin-2-yl)-5-((3-methylpiperidin-1-yl)methyl)-7-(trifluoromethyl)-1H-benzo[d]imidazole] | – | –
< 200 nM | 1000 to 10000 nM | 200 to 1000 nM | Cn1cnnc1-c1cc(F)ccc1-c1cccc(-c2nc3cc([C@H](CO)N4CCC4)cc(C(F)(F)F)c3o2)c1 (single isomer, unassigned) [DO-6] | – | –
200 to 1000 nM | 1000 to 10000 nM | 1000 to 10000 nM | Cn1cnnc1-c1cc(C#N)ccc1-c1cc(-c2nc3cc(CO)cc(F)c3o2)nc(C2CC2)c1 [AHD-1, 4-{2-cyclopropyl-6-[7-fluoro-5-(hydroxymethyl)-1,3-benzoxazol-2-yl]pyridin-4-yl}-3-(4-methyl-1,2,4-triazol-3-yl) benzonitrile] | – | –
< 200 nM | 200 to 1000 nM | 200 to 1000 nM | COC[C@@H](C)NCc1cc(C)c2oc(-c3cc(-c4ccc(F)cc4-c4nncn4C)cc(C4CC4)n3)nc2c1 [AGL-1, [(2-{6-Cyclopropyl-4-[4-fluoro-2-(4-methyl-1,2,4-triazol-3-yl)phenyl]pyridin-2-yl}-7-methyl-1,3-benzoxazol-5-yl)methyl][(2R)-1-methoxypropan-2-yl]amine] | – | –
< 200 nM | 1000 to 10000 nM | 200 to 1000 nM | Cn1cnnc1-c1cc(F)ccc1-c1cccc(-c2nc3cc(CNS(C)(=O)=O)cc(C(F)(F)F)c3o2)c1 [EC-1, N-((2-(4′-Fluoro-2′-(4-methyl-4H-1,2,4-triazol-3-yl)-[1,1′-biphenyl]-3-yl)-7-(trifluoromethyl)benzo[d]oxazol-5-yl)methyl)methanesulfonamide] | – | –
< 200 nM | 200 to 1000 nM | 1000 to 10000 nM | Cn1cnnc1-c1cc(F)ccc1-c1cccc(-c2nc3cc(CNCC(C)(C)F)cc(C(F)(F)F)c3[nH]2)c1 [CD-2, 2-Fluoro-N-((2-(4′-fluoro-2′-(4-methyl-4H-1,2,4-triazol-3-yl)-[1,1′-biphenyl]-3-yl)-7-(trifluoromethyl)-1H-benzo[d]imidazol-5-yl)methyl)-2-methylpropan-1-amine, Formic Acid] | – | –
